Measurements from ChEMBL document CHEMBL5678818, “Discovery of potent SOS1 inhibitors that block RAS activation via disruption of the RAS-SOS1 interaction” (Proc Natl Acad Sci U S A, 2019).

How the values were obtained:
[1] = target: T1, Serine/threonine-protein kinase TNNI3K (Homo sapiens) (UniProt Q59H18); experiment: Inhibition of TNNI3K (unknown origin) assessed as residual activity at 100 nM by KINOMEscan analysis relative to control
T1 sequence (whole entry): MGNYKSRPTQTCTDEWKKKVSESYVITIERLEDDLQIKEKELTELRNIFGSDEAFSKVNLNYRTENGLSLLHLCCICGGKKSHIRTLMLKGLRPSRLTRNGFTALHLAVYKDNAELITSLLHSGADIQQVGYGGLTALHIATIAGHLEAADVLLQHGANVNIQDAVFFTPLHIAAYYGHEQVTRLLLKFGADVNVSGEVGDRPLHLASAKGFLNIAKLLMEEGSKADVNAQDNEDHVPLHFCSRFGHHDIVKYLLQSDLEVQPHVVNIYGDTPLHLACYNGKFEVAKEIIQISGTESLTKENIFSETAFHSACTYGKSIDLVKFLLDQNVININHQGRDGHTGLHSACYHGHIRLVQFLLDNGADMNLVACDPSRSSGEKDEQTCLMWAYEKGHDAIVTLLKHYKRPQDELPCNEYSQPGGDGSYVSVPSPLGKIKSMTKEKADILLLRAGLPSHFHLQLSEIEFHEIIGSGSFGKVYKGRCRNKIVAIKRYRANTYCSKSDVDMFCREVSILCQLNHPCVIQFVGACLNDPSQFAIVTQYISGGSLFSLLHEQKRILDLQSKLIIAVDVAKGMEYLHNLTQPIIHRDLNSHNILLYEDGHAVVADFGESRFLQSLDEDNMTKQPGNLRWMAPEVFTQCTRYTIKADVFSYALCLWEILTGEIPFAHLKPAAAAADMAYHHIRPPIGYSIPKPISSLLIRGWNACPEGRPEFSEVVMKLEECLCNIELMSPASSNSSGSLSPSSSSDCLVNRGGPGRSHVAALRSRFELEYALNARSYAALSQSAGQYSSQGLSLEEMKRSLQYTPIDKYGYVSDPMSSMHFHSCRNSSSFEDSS

[2] = target: Serine/threonine-protein kinase B-raf (Homo sapiens) (UniProt P15056); experiment: Inhibition of BRAF (unknown origin) assessed as residual activity at 100 nM by KINOMEscan analysis relative to control
[3] = target: Insulin-like growth factor 1 receptor (Homo sapiens) (UniProt P08069); experiment: Inhibition of IGF1R (unknown origin) assessed as residual activity at 100 nM by KINOMEscan analysis relative to control
[4] = target: T2, Serine/threonine-protein kinase ULK1 (Homo sapiens) (UniProt O75385); experiment: Inhibition of ULK1 (unknown origin) assessed as residual activity at 100 nM by KINOMEscan analysis relative to control
T2 sequence (whole entry): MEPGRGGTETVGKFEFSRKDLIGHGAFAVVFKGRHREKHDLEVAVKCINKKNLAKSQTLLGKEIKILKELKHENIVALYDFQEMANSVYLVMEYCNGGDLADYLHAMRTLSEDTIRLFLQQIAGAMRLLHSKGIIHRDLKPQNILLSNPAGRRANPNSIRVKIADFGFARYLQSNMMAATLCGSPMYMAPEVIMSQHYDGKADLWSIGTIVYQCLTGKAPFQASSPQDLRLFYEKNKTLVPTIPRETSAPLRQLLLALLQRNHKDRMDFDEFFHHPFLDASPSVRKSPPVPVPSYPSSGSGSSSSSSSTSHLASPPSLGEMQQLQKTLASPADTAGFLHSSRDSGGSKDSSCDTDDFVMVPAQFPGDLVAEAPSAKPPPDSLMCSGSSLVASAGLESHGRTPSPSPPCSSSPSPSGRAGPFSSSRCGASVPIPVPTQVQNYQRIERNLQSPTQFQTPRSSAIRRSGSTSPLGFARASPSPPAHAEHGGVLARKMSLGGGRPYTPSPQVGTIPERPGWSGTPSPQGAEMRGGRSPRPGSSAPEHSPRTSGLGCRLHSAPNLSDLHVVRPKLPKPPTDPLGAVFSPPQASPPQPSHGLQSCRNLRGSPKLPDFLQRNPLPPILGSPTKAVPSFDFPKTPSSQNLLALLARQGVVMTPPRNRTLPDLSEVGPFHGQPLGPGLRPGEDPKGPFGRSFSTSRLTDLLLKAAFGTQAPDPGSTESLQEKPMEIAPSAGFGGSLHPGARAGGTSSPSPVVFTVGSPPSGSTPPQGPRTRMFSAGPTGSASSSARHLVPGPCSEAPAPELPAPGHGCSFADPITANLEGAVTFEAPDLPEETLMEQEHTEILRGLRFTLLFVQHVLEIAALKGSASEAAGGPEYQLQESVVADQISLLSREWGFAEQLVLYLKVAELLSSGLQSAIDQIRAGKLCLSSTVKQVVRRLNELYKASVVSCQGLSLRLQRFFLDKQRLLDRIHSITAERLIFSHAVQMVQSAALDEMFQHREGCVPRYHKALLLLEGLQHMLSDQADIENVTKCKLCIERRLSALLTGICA

Chain of Serine/threonine-protein kinase B-raf (Homo sapiens) (P15056 whole entry): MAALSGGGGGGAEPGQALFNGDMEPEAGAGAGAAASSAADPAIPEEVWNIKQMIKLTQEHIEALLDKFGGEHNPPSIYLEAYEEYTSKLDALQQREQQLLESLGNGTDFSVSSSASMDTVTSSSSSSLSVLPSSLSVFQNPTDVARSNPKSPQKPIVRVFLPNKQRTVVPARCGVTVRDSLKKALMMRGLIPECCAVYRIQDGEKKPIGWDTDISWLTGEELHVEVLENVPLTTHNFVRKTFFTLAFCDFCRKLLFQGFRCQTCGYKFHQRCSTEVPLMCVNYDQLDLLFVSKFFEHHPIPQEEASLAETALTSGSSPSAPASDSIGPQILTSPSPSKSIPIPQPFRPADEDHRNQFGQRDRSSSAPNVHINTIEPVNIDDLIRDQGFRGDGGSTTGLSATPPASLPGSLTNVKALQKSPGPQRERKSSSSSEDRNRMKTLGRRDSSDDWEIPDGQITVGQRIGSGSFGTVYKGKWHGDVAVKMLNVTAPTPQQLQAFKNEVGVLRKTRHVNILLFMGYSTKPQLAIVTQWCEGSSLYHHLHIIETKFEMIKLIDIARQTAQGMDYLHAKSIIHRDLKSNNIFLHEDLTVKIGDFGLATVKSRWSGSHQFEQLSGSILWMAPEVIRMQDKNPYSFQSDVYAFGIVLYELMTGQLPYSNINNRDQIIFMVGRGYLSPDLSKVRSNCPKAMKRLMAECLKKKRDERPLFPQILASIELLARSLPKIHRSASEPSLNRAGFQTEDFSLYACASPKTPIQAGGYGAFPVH
Chain of Insulin-like growth factor 1 receptor (Homo sapiens) (P08069 31-736 limits assumed): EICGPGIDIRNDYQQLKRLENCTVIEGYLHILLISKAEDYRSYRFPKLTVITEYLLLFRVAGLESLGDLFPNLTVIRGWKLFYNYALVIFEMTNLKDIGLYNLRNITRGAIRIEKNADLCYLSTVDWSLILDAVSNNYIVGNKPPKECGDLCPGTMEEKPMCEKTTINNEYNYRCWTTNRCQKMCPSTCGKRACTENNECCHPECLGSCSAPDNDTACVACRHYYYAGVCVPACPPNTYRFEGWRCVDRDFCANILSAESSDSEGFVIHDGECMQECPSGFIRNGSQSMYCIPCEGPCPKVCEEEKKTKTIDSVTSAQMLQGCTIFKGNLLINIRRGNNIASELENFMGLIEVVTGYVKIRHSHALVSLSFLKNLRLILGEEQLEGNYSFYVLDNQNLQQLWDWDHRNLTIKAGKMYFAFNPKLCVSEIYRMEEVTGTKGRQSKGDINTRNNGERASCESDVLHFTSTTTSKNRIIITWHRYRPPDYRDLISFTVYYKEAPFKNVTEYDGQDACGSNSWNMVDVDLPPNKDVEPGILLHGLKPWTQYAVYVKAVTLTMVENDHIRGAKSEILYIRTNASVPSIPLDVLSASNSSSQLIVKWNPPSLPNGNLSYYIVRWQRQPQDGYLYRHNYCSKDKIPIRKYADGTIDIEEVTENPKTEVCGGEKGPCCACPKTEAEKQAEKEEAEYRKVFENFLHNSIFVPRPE
Chain of Insulin-like growth factor 1 receptor (Homo sapiens) (P08069 741-1367 limits assumed): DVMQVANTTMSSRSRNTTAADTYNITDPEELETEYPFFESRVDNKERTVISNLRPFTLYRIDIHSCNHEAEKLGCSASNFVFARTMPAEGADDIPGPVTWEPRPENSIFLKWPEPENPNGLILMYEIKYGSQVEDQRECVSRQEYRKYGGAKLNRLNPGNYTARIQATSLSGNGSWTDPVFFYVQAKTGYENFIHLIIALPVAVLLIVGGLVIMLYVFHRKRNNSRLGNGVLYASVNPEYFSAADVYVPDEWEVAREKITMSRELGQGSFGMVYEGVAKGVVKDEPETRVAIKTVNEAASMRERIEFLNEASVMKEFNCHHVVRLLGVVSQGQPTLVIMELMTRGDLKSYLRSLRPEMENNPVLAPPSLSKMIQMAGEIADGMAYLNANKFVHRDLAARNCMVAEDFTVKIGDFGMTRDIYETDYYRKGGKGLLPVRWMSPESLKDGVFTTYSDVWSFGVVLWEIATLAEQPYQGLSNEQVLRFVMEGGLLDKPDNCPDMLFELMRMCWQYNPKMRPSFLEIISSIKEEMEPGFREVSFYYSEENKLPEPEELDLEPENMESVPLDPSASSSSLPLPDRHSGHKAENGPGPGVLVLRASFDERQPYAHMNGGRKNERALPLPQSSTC

SMILES: COc1cc2ncnc(N[C@H](C)c3cccc4ccccc34)c2cc1OC
- Activity [1]: 85%
- Activity [2]: 88%
- Activity [3]: 82%
- Activity [4]: 96%
